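48-hour exposure; five concentrations; linearly interpolated endpoints. Here, GI50 denotes the concentration required for 50% inhibition of growth.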 Active and inactive are the calls of the source. Cut-off read from the data, not from the text of the source: active = GI50 up to about 1.1 µM and inactive = higher.
Assays:
Experiment in all cases: NCI-60 cell line screen, 48 h
SF-539 = system: SF-539
SR = system: SR
EKVX = system: EKVX
SK-MEL-5 = system: SK-MEL-5
A498 = system: A498
NCI/ADR-RES = system: NCI/ADR-RES
MDA-MB-231 = system: MDA-MB-231
SW-620 = system: SW-620
HL-60 = system: HL-60
PC-3 = system: PC-3
NCI-H460 = system: NCI-H460
ACHN = system: ACHN
NCI-H226 = system: NCI-H226
SF-295 = system: SF-295
OVCAR-8 = system: OVCAR-8
MDA-MB-435 = system: MDA-MB-435
K562 = system: K562
MOLT-4 = system: MOLT-4
CCRF-CEM = system: CCRF-CEM
OVCAR-3 = system: OVCAR-3

Measured: GI50

O=C(/C=C/c1ccsc1)c1ccc(Cl)s1
inactive: SF-539 > 100 µM | SR 24 µM | EKVX > 100 µM | SK-MEL-5 > 100 µM | A498 34.5 µM | NCI/ADR-RES > 100 µM | MDA-MB-231 > 100 µM | SW-620 24.7 µM | HL-60 24.8 µM | PC-3 > 100 µM | NCI-H460 > 100 µM | ACHN > 100 µM | NCI-H226 53.3 µM | SF-295 59.4 µM | OVCAR-8 > 100 µM | MDA-MB-435 30.6 µM | K562 > 10 µM | MOLT-4 20.6 µM | CCRF-CEM 28.4 µM

C=CCSc1nc2c(N)ncnc2n1C1OC(CO)C(O)C1O (stereo not given)
inactive: SF-539 > 100 µM | SR > 100 µM | OVCAR-3 > 100 µM | EKVX > 100 µM | SK-MEL-5 > 100 µM | A498 > 100 µM | NCI/ADR-RES > 100 µM | MDA-MB-231 > 100 µM | SW-620 > 100 µM | HL-60 > 100 µM | PC-3 > 100 µM | NCI-H460 > 100 µM | ACHN > 100 µM | NCI-H226 > 100 µM | SF-295 > 100 µM | OVCAR-8 > 100 µM | MDA-MB-435 > 100 µM | K562 > 100 µM | MOLT-4 > 100 µM

N/N=c1\[nH]c2ccccc2o1
inactive: SF-539 > 100 µM | SR 52 µM | EKVX > 100 µM | SK-MEL-5 > 100 µM | A498 > 100 µM | NCI/ADR-RES 52.7 µM | MDA-MB-231 > 100 µM | SW-620 > 100 µM | HL-60 53.6 µM | PC-3 > 100 µM | NCI-H460 > 100 µM | ACHN > 100 µM | NCI-H226 > 100 µM | OVCAR-8 64.6 µM | MDA-MB-435 > 100 µM | K562 89.7 µM | MOLT-4 24.2 µM | CCRF-CEM 31.7 µM

O=C(Nc1ccccc1)c1cc2c(cc1Cl)SC(NNCCO)=NS2(=O)=O
inactive: SF-539 > 100 µM | SR > 100 µM | EKVX > 100 µM | SK-MEL-5 > 100 µM | A498 > 100 µM | NCI/ADR-RES > 100 µM | MDA-MB-231 > 100 µM | SW-620 > 100 µM | HL-60 > 100 µM | PC-3 > 100 µM | NCI-H460 > 100 µM | ACHN > 100 µM | NCI-H226 > 100 µM | SF-295 > 100 µM | OVCAR-8 > 100 µM | MDA-MB-435 > 100 µM | K562 > 100 µM | MOLT-4 > 100 µM | CCRF-CEM > 100 µM

Source: ChEMBL document CHEMBL1201862, “PubChem BioAssay data set” (2004)
